Results taken from PMC6630221, “Semi-Synthesis and Evaluation of Sargahydroquinoic Acid Derivatives as Potential Antimalarial Agents” (Medicines, 2019).

Tests used:
[1] = tested on: MDA-MB-231 breast carcinoma cells; assay: Cytotoxicity WST-1 assay; assay type: cell-based; conditions: MDA-MB-231 cells; for IC50: Homo sapiens, WST-1, triplicate
Description: All compounds were tested in triplicate against MDA-MB-231 breast carcinoma cells, which were purchased from the ATCC (Catalogue number HTB-26, Manassas, VA, USA). The cytotoxicity of the compounds was determined using the WST-1 assay method (Roche). The cells were treated with a range of concentrations of the test compounds or vehicle control (DMSO). Cells treated with DMSO were considered to represent 100% viability and the viability of cells at each dose was represented relative to this value. The concentration resulting in a decrease of cell viability to 50% was calculated from the linear portion of the dose response curve.

[2] = tested on: chloroquine-resistant Gambian FCR-3 strain of P. falciparum; assay: Antiplasmodial tritiated hypoxanthine incorporation assay; assay type: cell-based, Plasmodium falciparum; conditions: for IC50: Plasmodium falciparum, FCR3, chloroquine-resistant FCR-3 strain, 0.5% parasitaemia, 1% haematocrit, triplicate; for Selectivity Index: ratio of cytotoxicity IC50 (MDA-MB-231) to antimalarial IC50 (FCR-3); for antiplasmodial activity (in words): FCR-3 strain of P. falciparum
Description: All compounds were tested in triplicate against the chloroquine-resistant Gambian FCR-3 strain of P. falciparum. The in vitro erythrocytic stage of the parasite was maintained using the method outlined by Trager and Jensen. The antimalarial activity of the compounds was determined using the tritiated hypoxanthine incorporation assay using a 0.5% parasitaemia and 1% haematocrit. All assays were carried out using untreated parasites and uninfected red blood cells as controls. The concentration that inhibited 50% parasite growth (IC50 value) was determined from the log sigmoid dose response curve using GraphPad Prism. Quinine was used as the reference antiplasmodial agent. The selectivity index for the compounds was determined from the ratio of cytotoxicity IC50 to antimalarial IC50.

[3] = tested on: Plasmodium falciparum (D10); design: method as in PMID 19227833; conditions: chloroquine sensitive strain D10 of P. falciparum; ref [5]; cited from earlier work
[4] = listed as sarganaphthoquinoic acid (10)

## CC(C)=CCC/C(=C/CC/C(C)=C/CC/C(C)=C/Cc1cc(O)cc(C)c1O)C(=O)O [Sargahydroquinoic acid (1), sargahydroquinoic acid]
[1]
  IC50: 70 µM
[2]
  IC50: 38.6 µM
  Selectivity Index: 1.8
[3]
  IC50: 15.2 µM

## CC(C)=CCC/C(=C/CC/C(C)=C/CCC1(C)C=Cc2cc(O)cc(C)c2O1)C(=O)O (stereo not drawn) [Sargachromenol (7), sargachromenol]
[1]
  IC50: 56 µM
[2]
  IC50: 115 µM
  Selectivity Index: 0.5

## CC(C)=CCC/C(=C/CC/C(C)=C/CCC1(C)C=Cc2cc(O)cc(C)c2O1)CO (stereo not drawn) [Sargachromendiol (8), sargachromendiol]
[1]
  IC50: 187 µM
[2]
  IC50: 34.2 µM
  Selectivity Index: 5.5

## CC(C)=CCC/C(=C/CC/C(C)=C/CC/C(C)=C/CC1=CC(=O)C=C(C)C1=O)CO [Sargaquinol (6), sargaquinol]
[1]
  IC50: 99 µM
[2]
  antiplasmodial activity (in words): decreased antiplasmodial activity
  IC50: 93.1 µM
  Selectivity Index: 1.1

## CC(C)=CCC/C(C=O)=C/CC/C(C)=C/CC/C(C)=C/CC1=CC(=O)C=C(C)C1=O [10Z-sargaquinal (4), 2’E,6’E,10’Z-sargaquinal]
[1]
  IC50: 211 µM
[2]
  antiplasmodial activity (in words): decreased antiplasmodial activity
  IC50: 72.6 µM
  Selectivity Index: 2.9

## C=C[C@H]1C[N@@]2CC[C@H]1C[C@H]2[C@H](O)c1ccnc2ccc(OC)cc12 [Quinine, reference compound]
[2]
  IC50: 0.17 µM

## CC(C)=CCC/C(C=O)=C\CC/C(C)=C/CC/C(C)=C/CC1=CC(=O)C=C(C)C1=O [10E-sargaquinal (9), 10’E-sargaquinal]
[1]
  IC50: 69 µM
[2]
  antiplasmodial activity (in words): decreased antiplasmodial activity
  IC50: 104 µM
  Selectivity Index: 0.7
[3]
  IC50: 2 µM

## CC(C)=CCC/C(=C/CC/C(C)=C/CCc1ccc2c(c1)C(=O)C=C(C)C2=O)C(=O)O [Sarganaphthoquinone (10), sarganaphthoquinoic acid]
[1]
  IC50: 2410 µM
  cytotoxicity (in words): low cytotoxicity
[1]; [4]
  cytotoxicity (in words): almost non-toxic
[2]
  antiplasmodial activity (in words): most promising antiplasmodial activity
  IC50: 5.4 µM
[2]; [4]
  antiplasmodial activity (in words): good antiplasmodial activity

## COC(=O)/C(=C\CC/C(C)=C/CC/C(C)=C/CC1=CC(=O)C=C(C)C1=O)CCC=C(C)C [Sargaquinoic acid methyl ester (5), sargaquinoic acid methyl ester]
[1]
  IC50: 70 µM
[2]
  IC50: 8.2 µM
  Selectivity Index: 8.6

## CC(=O)Oc1cc(C)c(OC(C)=O)c(C/C=C(\C)CC/C=C(\C)CC/C=C(/CCC=C(C)C)C(=O)O)c1 [Sargahydroquinoic acid di-acetate (2), Diacetyl Sargahydroquinoic Acid]
[1]
  IC50: 286 µM
[2]
  IC50: 84.3 µM
  Selectivity Index: 3.4

## CC(C)=CCC/C(=C/CC/C(C)=C/CC/C(C)=C/CC1=CC(=O)C=C(C)C1=O)C(=O)O [Sargaquinoic acid (3), sargaquinoic acid]
[1]
  IC50: 658 µM
  cytotoxicity (in words): low cytotoxicity
[2]
  antiplasmodial activity (in words): most promising antiplasmodial activity
  IC50: 10.8 µM
  Selectivity Index: 60.9
[3]
  IC50: 12 µM
